Legend:
Type in all cases: cell-based
Spirulina platensis = experiment: Algae growth inhibition, area under growth curve (OECD Test Guideline 201), S. platensis; conditions: 72 hours after exposure, various simazine concentrations (FIG. 9)
Procedure: The area under the growth curve indicates cell growth, which is a conventional evaluation index of chemical substance impact on algae and is computed in compliance to a method for evaluating the impact of a chemical substance on a general algae (OECD Test Guideline 201). That is, the area under the growth curve is the area under the growth curve obtained by culturing 6 mL of an S. platensis cell suspension, adjusted to have an absorbance at 750 nm of 0.03, under a white fluorescent lamp (50 μmol·m−2·s−1) for 72 hours after chemical substance exposure and measuring, every 24 hours, a cell density as the absorbance at 750 nm.

[1] = test system: Pseudokircheneriella subcapitata; experiment: Delayed luminescence of P. subcapitata exposed to simazine, fitted by Formula (1); parameters: key to Computed value E: E computed by Formula (2) from fitted coefficients ai, bi, ci; conditions: for luminescence amount of delayed luminescence, exposed vs not exposed: 15 minutes after exposure (FIG. 14); for Fitting formula value a1 / Fitting formula value a2 / Fitting formula value a3 / Fitting formula value b1 / Fitting formula value b2 / Fitting formula value b3 / Fitting formula value c1 / Fitting formula value c2 / Fitting formula value c3: 15 minutes after exposure; for Computed value E: Formula (2) from coefficients of Table 2; for Area value (quadrature by parts): third function f3(t), t=0 to 90, Δt 0.1
Procedure: In the present example, the measurement of delayed luminescence was carried out as follows. 2.5 mL of a P. subcapitata cell suspension, adjusted to have an absorbance at 660 nm of 0.2 in a general, 10×10 mm spectrometric cell, was exposed to simazine of any of various concentrations and left to stand for 15 minutes under a white fluorescent lamp of a light amount of 50 μmol·m−2·s−1. Thereafter, inside the measuring device 10, a red light (660 nm) of approximately 300 μmol·m−2·s−1 was illuminated for 10 seconds from the light source 18 as the excitation light for making delayed luminescence be emitted and then the delayed luminescence emitted after extinguishing of the excitation light was recorded for 50 seconds at 0.1 second intervals.
In the present example, the above-described Formula (1) was used for fitting. As examples for description of the fitting results, the measurement result for the “Not exposed” case is shown in FIG. 15A and a graph of the results of fitting to the measurement data are shown in FIG. 15B. In FIG. 15B, f1(t), f2(t), and f3(t) are respectively the first function, the second function, and the third function in Formula (1). From FIG. 15, it can be understood that the delayed luminescence measurement data can be fitted by a plurality of hill-shaped function.
By the fitting, the function coefficients, ai, bi, and ci (i=1, 2, 3) are determined.
As another example of the evaluating step, a case of evaluating by an evaluation value computed based on a computation formula shall be described. As the evaluation value, an evaluation value E is computed from the determined coefficient values ai, bi, and ci (i=1, 2, 3) and based on Formula (2) described above. Here, the constants mj (j=1 to 9) are set, for example, so that m1=1/a3, m2=1, m3=1, m4=1/a2, m5=1/b2, m6=1/c2, m7=1, m8=1/a1, m9=1/c1. As the constants mj, those that are appropriate according to the measurement conditions and algae species can be set. If instead of using all of the coefficient values, only a portion is to be used as described above, a reciprocal of a coefficient value, such as 1/a3, is set to the corresponding mj (j=1 to 9) for each coefficient value to be ignored.
As another example of the evaluating step, a case of evaluating by an area value computed based on the coefficient values of a function shall be described. As mentioned above, the area value is the value of the area of a region surrounded by the curve indicating the function value in the function graph and the time axis line positioned below the curve indicating the function value. The area value of a function is deeply related to the luminescence amount of the photon component expressed by the function. In the present example, based on the coefficient values obtained from the results of exposing simazine to P. subcapitata shown in Table 2, area values were determined for the third function f3(t) in Formula (1) in a range of t=0 to 90 by quadrature by parts with at interval Δt being set equal to 0.1.

[2] = test system: Pseudokircheneriella subcapitata; experiment: Algae growth inhibition, area under growth curve, P. subcapitata; conditions: 72 hours after exposure, various simazine concentrations (FIG. 13)
Procedure: In the present embodiment, the area under the growth curve is the area under the growth curve obtained by culturing 6 mL of an P. subcapitata cell suspension, adjusted to have an absorbance at 750 nm of 0.01, under a white fluorescent lamp (50 μmol·m−2·s−1) for 72 hours after chemical substance exposure and measuring, every 24 hours, the cell density as the absorbance at 750 nm.

[3] = simazine exposure concentration 5 μg/L
[4] = simazine exposure concentration 25 μg/L
[5] = simazine exposure concentration 50 μg/L
[6] = simazine exposure concentration 100 μg/L

**Q.** Which results are given for CCNc1nc(Cl)nc(NCC)n1 [Simazine, simazine]?
**A.** cell growth (area under the growth curve) (Spirulina platensis): inhibited according to the exposure concentration of simazine; variation of evaluation value c3 with simazine exposure concentration ([1]; P. subcapitata (FIG. 16)): decreases in accordance with the simazine exposure concentration; variation of computed value E with simazine exposure concentration ([1]; P. subcapitata (FIG. 17)): decreases in accordance with the simazine exposure concentration; variation of area value with simazine exposure concentration ([1]; P. subcapitata (FIG. 18)): decreases in accordance with the simazine exposure concentration; luminescence amount of delayed luminescence, exposed vs not exposed ([1]; early time period (near 0 seconds) of time after excitation): increases; luminescence amount of delayed luminescence, exposed vs not exposed ([1]; later time period (5 seconds onward) after excitation): decreases; Fitting formula value a1 [1, 3]: 0.05; Fitting formula value a2 [1, 3]: 0.0037; Fitting formula value a3 [1, 3]: 0.0005; Fitting formula value b1 [1, 3]: −0.5; Fitting formula value b2 [1, 3]: −0.5; Fitting formula value b3 [1, 3]: 6; Fitting formula value c1 [1, 3]: 5.2; Fitting formula value c2 [1, 3]: 4.15; Fitting formula value c3 [1, 3]: 3; Computed value E [1, 3]: 360; Area value (quadrature by parts) [1, 3]: 24112.1; Fitting formula value a1 [1, 4]: 0.05; Fitting formula value a2 [1, 4]: 0.0035; Fitting formula value a3 [1, 4]: 0.0004; Fitting formula value b1 [1, 4]: −0.5; Fitting formula value b2 [1, 4]: −0.5; Fitting formula value b3 [1, 4]: 5; Fitting formula value c1 [1, 4]: 5.2; Fitting formula value c2 [1, 4]: 4.1; Fitting formula value c3 [1, 4]: 2.9; Computed value E [1, 4]: 290; Area value (quadrature by parts) [1, 4]: 19665.7; Fitting formula value a1 [1, 5]: 0.08; Fitting formula value a2 [1, 5]: 0.0044; Fitting formula value a3 [1, 5]: 0.0005; Fitting formula value b1 [1, 5]: −0.5; Fitting formula value b2 [1, 5]: −0.5; Fitting formula value b3 [1, 5]: 3; Fitting formula value c1 [1, 5]: 5.4; Fitting formula value c2 [1, 5]: 4.1; Fitting formula value c3 [1, 5]: 2.9; Computed value E [1, 5]: 108.75; Area value (quadrature by parts) [1, 5]: 16520.1; Fitting formula value a1 [1, 6]: 0.1; Fitting formula value a2 [1, 6]: 0.005; Fitting formula value a3 [1, 6]: 0.005; Fitting formula value b1 [1, 6]: −0.5; Fitting formula value b2 [1, 6]: −0.5; Fitting formula value b3 [1, 6]: 3; Fitting formula value c1 [1, 6]: 5.6; Fitting formula value c2 [1, 6]: 4.1; Fitting formula value c3 [1, 6]: 2.7; Computed value E [1, 6]: 81; Area value (quadrature by parts) [1, 6]: 4435.7; cell growth (area under the growth curve) [2]: inhibited according to the exposure concentration of simazine

— patent publication US20100159496A1, “EVALUATION METHOD FOR PHOTOSYNTHESIS SAMPLE, EVALUATION SYSTEM FOR PHOTOSYNTHESIS SAMPLE, AND EVALUATION PROGRAM FOR PHOTOSYNTHESIS SAMPLE” (HAMAMATSU PHOTONICS K.K., priority 2006, published 2010)
